Results reported in US9856221B2, “Salt of ivabradine and process for the preparation thereof” (LES LABORATOIRES SERVIER, priority 2014, dated 2018).
Where “and” joins values, the source holds several entries; their conditions need not be identical. Equal entries are not always repeated. Structures can show the parent of a compound that is named as a salt. One block for each molecule: values may come before it.

Key:
[1] = In vitro release of ivabradine hydrochloride (immediate-release formulation); type: physicochemical
[2] = Dissolution test (paddle apparatus, Ph. Eur. 2.9.3), release of active ingredient; type: physicochemical; settings: for % of active ingredient released (individual units B1-B6) / % of active ingredient released, Mean: 0.01 N HCl pH~2.1, 37°C, paddle 50 rpm; for % of active ingredient released (individual units B1-B6): 500 mL; for % of active ingredient released, Mean: mean of 6 units
Experimental: Dissolution Test Operating Conditions for Dissolution Paddle dissolution apparatus described in the European pharmacopoeia (2.9.3) Dissolution medium: 0.01 N hydrochloric acid (pH˜2.1) degassed Temperature of the medium: 37° C.±0.5° C. Volume of the medium: 500 mL±5 mL Speed of rotation of the blades: 50 rpm±2 rpm Standard sampling time: 0, 15, 30 and 45 min Added sampling times: 1, 2, 4, 6, 8, 12 and 16 h Volume removed: 1 mL Replacement of the volume removed: no Number of units tested: 6 Number of units per flask: 1

time in which all the salt is released in vitro [1]: 15 min
SMILES: COc1cc2c(cc1OC)CC(=O)N(CCCN(C)C[C@H]1Cc3cc(OC)c(OC)cc31)CC2 [ivabradine hydrochloride, 3-{3-[{[(7S)-3,4-dimethoxybicyclo[4.2.0]octa-1,3,5-trien-7-yl]methyl}-(methyl)amino]propyl}-7,8-dimethoxy-1,3,4,5-tetrahydro-2H-3-benzazepin-2-one]

ivabradine hemipamoate released ([2]; after approximately 6 hours, in vitro dissolution test): 80%
Derivative (of % of active ingredient released over time) ([2]; time 0 hour): 0 %/min
% of active ingredient released (individual units B1-B6) ([2]; time 0 hour): 0%
% of active ingredient released, Mean ([2]; time 0 hour): 0%
Derivative (of % of active ingredient released over time) ([2]; time 0.25 hour): 0.79 %/min
% of active ingredient released (individual units B1-B6) ([2]; time 0.25 hour): 12% (3×) and 11% (2×) and 13%
% of active ingredient released, Mean ([2]; time 0.25 hour): 12%
Derivative (of % of active ingredient released over time) ([2]; time 0.5 hour): 0.4 %/min
% of active ingredient released (individual units B1-B6) ([2]; time 0.5 hour): 18% (2×) and 17% (2×) and 20% and 16%
% of active ingredient released, Mean ([2]; time 0.5 hour): 18%
Derivative (of % of active ingredient released over time) ([2]; time 0.75 hour): 0.26 %/min
% of active ingredient released (individual units B1-B6) ([2]; time 0.75 hour): 21% (2×) and 22% (2×) and 24% and 20%
% of active ingredient released, Mean ([2]; time 0.75 hour): 22%
Derivative (of % of active ingredient released over time) ([2]; time 1 hour): 0.2 %/min
% of active ingredient released (individual units B1-B6) ([2]; time 1 hour): 24% and 25% and 26% and 28% and 23% (2×)
% of active ingredient released, Mean ([2]; time 1 hour): 25%
Derivative (of % of active ingredient released over time) ([2]; time 2 hour): 0.23 %/min
% of active ingredient released (individual units B1-B6) ([2]; time 2 hour): 38% (2×) and 40% (2×) and 43% and 34%
% of active ingredient released, Mean ([2]; time 2 hour): 39%
Derivative (of % of active ingredient released over time) ([2]; time 4 hour): 0.25 %/min
% of active ingredient released (individual units B1-B6) ([2]; time 4 hour): 64% and 70% (2×) and 71% and 72% and 66%
% of active ingredient released, Mean ([2]; time 4 hour): 69%
Derivative (of % of active ingredient released over time) ([2]; time 6 hour): 0.15 %/min
% of active ingredient released, Mean ([2]; time 6 hour): 86%
Derivative (of % of active ingredient released over time) ([2]; time 8 hour): 0.07 %/min
% of active ingredient released, Mean ([2]; time 8 hour): 95%
Derivative (of % of active ingredient released over time) ([2]; time 12 hour): 0.03 %/min
% of active ingredient released, Mean ([2]; time 12 hour): 104%
Derivative (of % of active ingredient released over time) ([2]; time 16 hour): 0.01 %/min
% of active ingredient released, Mean ([2]; time 16 hour): 107%
SMILES: COc1cc2c(cc1OC)CC(=O)N(CCCN(C)C[C@H]1Cc3cc(OC)c(OC)cc31)CC2 [ivabradine hemipamoate]
% of active ingredient released (individual units B1-B6) ([2]; time 6 hour): 81% and 89% and 88% and 85% and 91% and 84%
% of active ingredient released (individual units B1-B6) ([2]; time 8 hour): 89% and 99% and 96% and 94% and 101% and 93%
% of active ingredient released (individual units B1-B6) ([2]; time 12 hour): 96% and 109% and 102% and 103% and 110% and 101%
% of active ingredient released (individual units B1-B6) ([2]; time 16 hour): 98% and 114% (2×) and 104% and 106% and 105%
